In paper PMC2994686, “The Function and Three-Dimensional Structure of a Thromboxane A2/Cysteinyl Leukotriene-Binding Protein from the Saliva of a Mosquito Vector of the Malaria Parasite” (PLoS Biology, 2010):
Entries after “also recorded” stand apart in the source; their conditions may differ. Where two headings read alike, the source gives them in different places.

What was measured:
AnSt-D7L1 [1] = biological target: T1, AnSt-D7L1 (Anopheles stephensi, UniProt Q95NY5); conditions: for binding to AnSt-D7L1 by ITC (in words): ITC screen of candidate ligands, partly unpublished data; for Kd: read-out: dissociation constant (Kd), ITC, 35°C, 40 µM ligand in syringe, 4 µM AnSt-D7L1 in cell, single binding site model
T1 sequence (Q95NY5 19-315 limits assumed): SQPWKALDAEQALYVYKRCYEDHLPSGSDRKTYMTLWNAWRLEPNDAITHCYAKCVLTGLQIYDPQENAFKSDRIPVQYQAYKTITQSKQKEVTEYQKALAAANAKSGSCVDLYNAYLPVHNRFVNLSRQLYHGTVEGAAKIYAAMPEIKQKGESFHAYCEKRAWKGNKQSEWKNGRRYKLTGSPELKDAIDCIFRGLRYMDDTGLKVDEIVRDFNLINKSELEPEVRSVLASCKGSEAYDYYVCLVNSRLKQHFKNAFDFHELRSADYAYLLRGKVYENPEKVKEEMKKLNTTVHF
Method: (§1) Binding experiments were performed on a MicroCal VP-ITC instrument. For CysLT experiments the syringe contained a 20 µM ligand solution, and the AnSt-D7L1 concentration in the cell was 2 µM. For the TXA2 analog experiments the ligand solution used to fill the syringe was 40 µM and the AnSt-D7L1 concentration in the cell was 4 µM. Assays were performed at 35°C with successive 10 µL injections.
(§2) Binding experiments were performed on a MicroCal VP-ITC instrument. For these experiments, the ligand solution used to fill the syringe was 80 µM and AnSt-D7L1 concentration in the calorimeter cell was 8 µM. Assays were performed at 35°C with successive 10 µL injections.
(§3) AnSt-D7L1 was prepared for ITC experiments by dialysis against 20 mM Tris-HCl 0.15 M NaCl pH 7.4 for 1 h. Binding experiments were performed on a MicroCal VP-ITC instrument. Aliquots of lipid stock solutions in ethanol or methyl acetate were dried under a stream of nitrogen in a glass vial, then dissolved in 20 mM Tris HCl, 0.15 M NaCl pH 7.4, vortexed, and sonicated for 8 min. Non-lipidic ligands were dissolved in 20 mM Tris HCl, 0.15 M NaCl pH 7.4. All solutions were degassed prior to use. Assays were performed at 35°C with successive 10 µL injections, with a spacing interval of 180 s and a syringe stirring speed of 290 rpm. In all the cases, after subtraction of the heats of dilution, the measured heats were converted to enthalpies and analyzed by fitting to a single-site binding model using the Microcal Origin software.

AeD7 = system: AeD7; set-up: method as in PMID 19234127; conditions: cited from earlier work
AnSt-D7L1 [2] = biological target: T1, AnSt-D7L1; assay: Incubation of LTC4 with AnSt-D7L1, gel filtration, HPLC and mass spectrometry (test for hydrolytic or enzymatic function); set-up: made in house; conditions: incubated at 25°C; mass spectrum of bound versus free ligand
Method: Fractions containing the complex were then applied to a C18 HPLC column, eluted with methanol, and analyzed by mass spectrometry.
(B) LTC4 was injected alone in order to obtain a retention volume measurement for the free ligand. In both cases, the column was eluted with 100 mM ammonium acetate pH 7.2 at a flow rate of 60 µL per min. (0.39 MB TIF) Click here for additional data file.
Supplementary file pbio.1000547.s003.tif: Figure S3 Mass spectral analysis of the AnSt-D7L1-LTC4 complex after gel filtration chromatography. Top: The peak fraction from the gel filtration of Figure S2 (3 µl) was applied to a C18 column and eluted with 5% methanol 0.1% acetic acid for 10 min, then 5%–95% methanol 0.1% acetic acid (0.3 mm diameter column in 20 min at 3 µl/min). The eluent was analyzed directly by MS/MS. […] The inset is a sample collision-induced dissociation spectrum (35% intensity) recorded at 61–65 min. (2.15 MB TIF) Click here for additional data file.

AnSt-D7L1 [3] = biological target: T1, AnSt-D7L1; assay: biochemical
Method: as §1, §2, §3

CysLT1 = biological target: CysLT1; set-up: method as in PMID 16107763; conditions: read-out: affinity of CysLT1; cited from earlier work
[4] = system: Human platelet-rich plasma; assay: Platelet aggregation assay in an aggregometer; assay type: cell-based; conditions: for effect on U46619-induced platelet shape change / effect on U46619-induced platelet aggregation: 1.3 µM U46619; for effect on U46619-induced platelet shape change: AnSt-D7L1 2 and 3 µM, SQ 29,548 1 µM without protein; for effect on collagen-induced platelet aggregation (comparison with TXA2 antagonists): 3 µM AnSt-D7L1, SQ 29,548, or indomethacin pre-treatment
Method: Figure 5 Effect of AnSt-D7L1 on platelet aggregation promoted by different agonists. Platelet-rich human plasma was incubated with different concentrations of AnSt-D7L1 for 1 min prior to the addition of agonists as indicated. Aggregation was measured at 37°C on an aggregometer. Unless otherwise stated protein concentration (µM) is shown under respective curves. (A) Concentration dependence of AnSt-D7L1 inhibition of collagen-mediated platelet aggregation at low concentration of collagen. (B) Lack of inhibition of collagen-mediated platelet aggregation by AnSt-D7L1 at high concentration of collagen. (C) Lack of inhibition of convulxin-mediated platelet aggregation by AnSt-D7L1. (D) ADP-mediated platelet aggregation in the absence of any protein (control), in the presence of 3 µM AnSt-D7L1, or in the presence of 3 µM RPAI1, which is known to bind ADP. (E) Lack of effect of AnSt-D7L1 on PMA-induced platelet aggregation. (F) Lack of effect of AnSt-D7L1 on ristocetin-induced platelet aggregation.
Figure 6 AnSt-D7L1 affects platelet aggregation promoted by TXA2. Platelet-rich human plasma was incubated with different concentrations of AnSt-D7L1 or buffer, as indicated, for 1 min prior to the addition of agonists indicated in each panel. (A) Aggregation mediated by collagen in the presence of TXA2 antagonists. The effect of 3 µM AnSt-D7L1 on collagen-induced aggregation was similar to the effect promoted by a thromboxane receptor (TP) antagonist (SQ 29,548) or by pre-incubating platelets with indomethacin, a general cyclooxygenase inhibitor. […] (B) AnSt-D7L1 has a dose dependent effect on U46619-induced platelet aggregation. Protein concentrations are shown on the bottom of each curve. […] (C) AnSt-D7L1 (3 µM) affects AA-induced platelet aggregation. […] Respective treatments are indicated in the bottom of each curve.
Platelets were prepared as described previously. Human platelet-rich plasma (∼2×10^5/µL final density) and Tyrode-BSA buffer in the presence or absence of AnSt-D7L1 (final volume 300 µL) were placed in an aggregometer and stirred at 1,200 rpm at 37°C for 1 min prior to the addition of different agonists. In experiments using the human TP (TXA2 receptor) antagonist SQ 29,548 or made in the presence of proteins (AnSt-D7L1 or RPAI-1), those compounds were added to the platelet suspension and Tyrode mix prior to addition of agonists. In experiments in which indomethacin, a general cycloxygenase inhibitor, was used, platelets were pre-incubated with the compound for 5 min prior to addition of agonists.

TP receptor = biological target: TP receptor; set-up: method as in PMID 18374420; conditions: Gα12/13-coupled signaling; read-out: EC50 for TP-mediated shape change; cited from earlier work
rat aorta = assay: Smooth muscle bioassay: U46619-induced contraction of rat aorta
Method: Figure 4 Smooth muscle contraction bioassay.
Tissue preparations were bathed in modified Tyrode solution (with 10 mM HEPES buffer, pH 7.4) during the course of the experiment, and the solutions were kept oxygenated by bubbling air into the bath.

For `CCCCC/C=C\C/C=C\C/C=C\C/C=C\CCCC(=O)O` [AA, arachidonic acid], the “binding to AnSt-D7L1 by ITC (in words)” value (AnSt-D7L1 [1]) was “no detectable binding”.
For `Nc1ncnc2c1ncn2[C@@H]1O[C@H](COP(=O)(O)OP(=O)(O)O)[C@@H](O)[C@H]1O` [ADP, adenosine diphosphate], the “binding to AnSt-D7L1 by ITC (in words)” value (AnSt-D7L1 [1]) was “Neither showed any detectable binding”.
For `CCCCC/C=C\C[C@@H](O)/C=C/C=C/C=C\[C@@H](O)CCCC(=O)O` [LTB4, leukotriene B4], the “binding to AeD7 (in words)” value (AeD7) is listed as “low affinity” and the “binding to AnSt-D7L1 by ITC (in words)” value (AnSt-D7L1 [1]) is listed as “did not bind”.
With `CCCCC/C=C\C\C=C/C=C/C=C/[C@@H](SC[C@H](NC(=O)CC[C@H](N)C(=O)O)C(=O)NCC(=O)O)[C@@H](O)CCCC(=O)O` [LTC4, leukotriene C4] the “chemical modification of bound LTC4 by AnSt-D7L1” value (AnSt-D7L1 [2]) was “binds but does not chemically modify”.
For `CCCCC/C=C\C\C=C/C=C/C=C/[C@@H](SC[C@H](N)C(=O)NCC(=O)O)[C@@H](O)CCCC(=O)O` [LTD4, leukotriene D4], the Kd (AnSt-D7L1 [3]) was 5 ± 1 nM.
In the case of `CCCCC/C=C\C\C=C/C=C/C=C/[C@@H](SC[C@H](N)C(=O)O)[C@@H](O)CCCC(=O)O` [LTE4, leukotriene E4], the Kd (CysLT1) is listed as about 100 nM.
For `CCCCC[C@H](O)/C=C/[C@H]1C(=O)C[C@H](O)[C@@H]1C/C=C\CCCC(=O)O` [PGD2], the “binding to AnSt-D7L1 by ITC (in words)” value (AnSt-D7L1 [1]) was “affinities much lower than those seen with CysLTs and TXA2 analogs”.
With `CCCCC[C@H](O)/C=C/[C@H]1[C@H](O)CC(=O)[C@@H]1C/C=C\CCCC(=O)O` [PGE2, prostaglandin E2] the “binding to AnSt-D7L1 by ITC (in words)” value (AnSt-D7L1 [1]) was “affinities much lower than those seen with CysLTs and TXA2 analogs” and the Kd (AnSt-D7L1 [3]) was 1900 ± 200 nM.
For `CCCCC[C@H](O)/C=C/[C@@H]1[C@@H](C/C=C\CCCC(=O)O)[C@@H](O)C[C@H]1O` [PGF2α, prostaglandin F2α], the “binding to AnSt-D7L1 by ITC (in words)” value (AnSt-D7L1 [1]) was “affinities much lower than those seen with CysLTs and TXA2 analogs” and the Kd (AnSt-D7L1 [3]) was 671 ± 61 nM.
In the case of `O=C(O)CCC/C=C\C[C@@H]1[C@H](CNNC(=O)Nc2ccccc2)[C@H]2CC[C@@H]1O2` [SQ 29,548], the “effect on U46619-induced platelet shape change” value [4] is reported as “prevented” and the “effect on collagen-induced platelet aggregation (comparison with TXA2 antagonists)” value (shortened to “effect … (comparison with TXA2 antagonists)”) [4] is reported as “attenuated”.
`CCCCC[C@H](O)/C=C/[C@H]1OC(O)C[C@H](O)[C@@H]1C/C=C\CCCC(=O)O` (stereo partly shown) [TXB2, thromboxane B2] gave a Kd (AnSt-D7L1 [3]) of 1300 ± 200 nM.
For `CCCCC[C@H](O)/C=C/[C@@H]1[C@@H](C/C=C\CCCC(=O)O)[C@H]2CO[C@@H]1C2` [U46619], the “binding to AeD7 (in words)” value (AeD7) is given as “no detectable binding”, the Kd (AnSt-D7L1 [1]) is given as about 98 nM and the EC50 (TP receptor) is given as about 13 nM.
In the case of `CCCCCC/C=C/C1C2CC(N=N2)C1C/C=C\CCCC(=O)O` (stereo not shown) [U51605], the “binding to AnSt-D7L1 by ITC (in words)” value (AnSt-D7L1 [1]) is reported as “detectable but much weaker binding than U46619”.
For `CCCCC[C@H](O)/C=C/[C@H]1CC2CC(C2)[C@@H]1C/C=C\CCCC(=O)O` [carbocyclic TXA2], the Kd (AnSt-D7L1 [1]) was about 38 nM.
With `COc1ccc2c(c1)c(CC(=O)O)c(C)n2C(=O)c1ccc(Cl)cc1` [indomethacin] the “effect … (comparison with TXA2 antagonists)” value [4] was “attenuated”.
With `CNC[C@H](O)c1cccc(O)c1` [phenylephrine] the “contraction of aorta after relaxation by AnSt-D7L1” value (rat aorta; 3 µM phenylephrine added after relaxation) was “contracted normally”.
With “AnSt-D7L1: recombinant two-domain D7 salivary protein from An. stephensi that binds CysLTs and TXA2” the “effect on U46619-induced platelet aggregation” value ([4]; 1 µM AnSt-D7L1) was “dramatically inhibited aggregation”, the “effect on U46619-induced platelet aggregation” value ([4]; 2 and 3 µM AnSt-D7L1) was “completely prevented aggregation” and the “effect on U46619-induced platelet shape change” value [4] was “not completely inhibited”. For the same compound, the “effect on U46619-induced platelet aggregation” value ([4]; low AnSt-D7L1 concentrations, less than 1:1 ratio) was “delayed but did not prevent platelet aggregation”, the “effect on AA-induced platelet aggregation” value ([4]; AA as agonist, 3 µM AnSt-D7L1, or indomethacin pre-incubation without protein) was “drastically decreased” and the “inhibition of convulxin-induced platelet aggregation” value ([4]; GPVI agonist convulxin) was “inhibitory effect of AnSt-D7L1 was lost”. The “inhibition of collagen-induced platelet aggregation” value ([4]; collagen at high concentration) was “inhibitory effect of AnSt-D7L1 was lost”, the “effect … (comparison with TXA2 antagonists)” value [4] was “very similar” and the “inhibition of collagen-induced platelet aggregation” value ([4]; low collagen 1.6 µg/mL, 1 µM AnSt-D7L1) was “almost completely inhibited”. For the same compound, the “effect on the platelet response to collagen stimulation” value ([4]; low collagen, 0.03 µM AnSt-D7L1) was “sufficient to remove a significant fraction of the TXA2”, the “effect on the platelet aggregation response to collagen” value ([4]; low collagen, 0.1 µM AnSt-D7L1) was “eliminates most of the aggregation response” and the “inhibition of ADP-induced platelet shape change” value ([4]; minimal dose of ADP eliciting shape change, 3 µM protein) was “no inhibitory effect”. For the same compound, the “effect on PMA-induced platelet aggregation” value ([4]; protein kinase C activator PMA) was “no effect”, the “effect on ristocetin-induced platelet agglutination” value ([4]; ristocetin, VWF-dependent) was “no effect” and the “reversal of contraction induced by U46619” value (rat aorta; aorta pre-contracted with 1 µM U46619, 0.1 µM AnSt-D7L1 added after plateau) was “caused relaxation”. For the same compound, the “effect on U46619-induced contraction of aorta” value (rat aorta; pre-incubation with AnSt-D7L1, 0.1 µM U46619) was “inhibited; also recorded: no contraction” and the “increase of the amount of U46619 needed to promote contraction” value (rat aorta; pre-incubation with AnSt-D7L1, successive additions of 0.1 µM U46619) was “approximately 3 fold”.
With platelet activating factor [PAF] the “binding to AnSt-D7L1 by ITC (in words)” value (AnSt-D7L1 [1]) was “Neither showed any detectable binding”.
